Source: ChEMBL document CHEMBL6109139, “Rational Design of the First Dual Agonist at Trace Amine-Associated Receptor 1 and 5-HT2C Receptors Based on Binding Pocket Similarity for the Treatment of Schizophrenia and Alzheimer's Disease-Related Psychosis” (J Med Chem, 2025)

Tests used:
[1] = Cardiotoxicity in conscious cynomolgus monkey assessed as change in diastolic pressure at 3.125 to 12.5 mg/kg, IG measured within 25 hrs; assay type: toxicity, organism-based, Macaca fascicularis; settings: in vivo, po, dose 3.125-12.5 mg/kg
[2] = Toxicity in male Beagle dog assessed as change in blood pressure at 0.75 to 2.5 mg/kg, IG administered once daily for 4 weeks and measured after 4 weeks; assay type: organism-based, Canis lupus familiaris; settings: in vivo, po, 1344 h, dose 0.75-2.5 mg/kg, time 8 weeks
[3] = tested on: Mus musculus; test: Antipsychotic activity against DOI-induced head-twitch response in mouse assessed as reduction in head-twitch response at 10 mg/kg, IG measured for 30 mins relative to control; assay type: functional; design: scale not given: the % may be the effect or the level left; settings: 0.5 h
[4] = Toxicity in female Sprague-Dawley rat assessed as irritability at 7.5 mg/kg, po administered once daily for 4 weeks; assay type: organism-based; settings: in vivo, 672 h
[5] = target: Neuronal acetylcholine receptor subunit alpha-7 (Homo sapiens) (UniProt P36544); test: Binding affinity to nACHR-alpha7 (unknown origin) at 10 uM by radioligand binding assay relative to control
Chain of Neuronal acetylcholine receptor subunit alpha-7 (Homo sapiens) (P36544 whole entry): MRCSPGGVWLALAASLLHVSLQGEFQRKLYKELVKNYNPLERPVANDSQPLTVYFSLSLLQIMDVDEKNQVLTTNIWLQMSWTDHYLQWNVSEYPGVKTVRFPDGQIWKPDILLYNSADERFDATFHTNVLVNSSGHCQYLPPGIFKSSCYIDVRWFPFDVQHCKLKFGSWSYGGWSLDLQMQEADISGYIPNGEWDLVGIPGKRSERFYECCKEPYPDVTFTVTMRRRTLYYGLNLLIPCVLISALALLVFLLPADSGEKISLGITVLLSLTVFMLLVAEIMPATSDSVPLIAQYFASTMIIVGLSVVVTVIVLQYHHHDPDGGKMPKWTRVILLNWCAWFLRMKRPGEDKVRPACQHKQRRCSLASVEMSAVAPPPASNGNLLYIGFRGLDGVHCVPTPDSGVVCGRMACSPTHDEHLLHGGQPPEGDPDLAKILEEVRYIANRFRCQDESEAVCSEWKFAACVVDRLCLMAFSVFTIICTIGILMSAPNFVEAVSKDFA

[6] = target: Adenosine receptor A2a (Homo sapiens) (UniProt P29274); test: Binding affinity to ADORA2A (unknown origin) at 10 uM by radioligand binding assay relative to control
Chain of Adenosine receptor A2a (Homo sapiens) (P29274 whole entry): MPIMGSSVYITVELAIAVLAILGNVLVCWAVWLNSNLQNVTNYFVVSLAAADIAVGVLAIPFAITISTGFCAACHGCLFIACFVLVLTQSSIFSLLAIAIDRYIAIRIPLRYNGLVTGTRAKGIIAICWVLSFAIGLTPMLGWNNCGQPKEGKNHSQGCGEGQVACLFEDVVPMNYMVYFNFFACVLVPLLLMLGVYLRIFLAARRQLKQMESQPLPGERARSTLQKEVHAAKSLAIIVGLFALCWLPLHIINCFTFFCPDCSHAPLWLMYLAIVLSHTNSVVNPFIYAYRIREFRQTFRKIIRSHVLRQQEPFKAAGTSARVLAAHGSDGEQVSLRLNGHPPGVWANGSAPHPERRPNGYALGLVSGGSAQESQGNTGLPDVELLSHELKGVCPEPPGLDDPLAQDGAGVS

[7] = Toxicity in male Sprague-Dawley rat assessed as suppression of food consumption at 7.5 mg/kg, po administered once daily for 4 weeks and measured weekly twice; assay type: organism-based; settings: in vivo, 672 h
[8] = target: Muscarinic acetylcholine receptor M3 (Homo sapiens) (UniProt P20309); test: Binding affinity to M3 receptor (unknown origin) at 10 uM by radioligand binding assay relative to control
Chain of Muscarinic acetylcholine receptor M3 (Homo sapiens) (P20309 whole entry, looked up): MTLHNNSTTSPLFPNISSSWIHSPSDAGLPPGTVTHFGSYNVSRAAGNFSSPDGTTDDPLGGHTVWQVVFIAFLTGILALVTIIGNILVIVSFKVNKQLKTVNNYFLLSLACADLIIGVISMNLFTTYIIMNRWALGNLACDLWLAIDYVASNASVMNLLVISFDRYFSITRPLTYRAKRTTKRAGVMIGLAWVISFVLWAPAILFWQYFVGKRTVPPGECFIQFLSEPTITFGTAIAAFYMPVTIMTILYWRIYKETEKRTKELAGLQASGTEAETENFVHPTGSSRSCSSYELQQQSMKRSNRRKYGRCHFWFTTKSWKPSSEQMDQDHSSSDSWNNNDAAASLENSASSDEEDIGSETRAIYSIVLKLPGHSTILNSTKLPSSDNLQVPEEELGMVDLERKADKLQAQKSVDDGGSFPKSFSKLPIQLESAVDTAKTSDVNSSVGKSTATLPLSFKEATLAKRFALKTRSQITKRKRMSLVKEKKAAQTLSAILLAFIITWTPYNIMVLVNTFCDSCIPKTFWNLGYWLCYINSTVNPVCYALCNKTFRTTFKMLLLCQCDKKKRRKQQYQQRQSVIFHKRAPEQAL

[9] = Toxicity in male Sprague-Dawley rat assessed as change in urinalysis at 2.5 to 7.5 mg/kg, po administered once daily for 4 weeks and measured after 4 weeks; assay type: organism-based; settings: in vivo, 1344 h, dose 2.5-7.5 mg/kg, time 8 weeks
[10] = Cardiotoxicity in conscious cynomolgus monkey assessed as decrease in body temperature at 3.125 to 12.5 mg/kg, IG by digital thermometer analysis; assay type: toxicity, organism-based, Macaca fascicularis; settings: in vivo, po, dose 3.125-12.5 mg/kg
[11] = target: Histamine H2 receptor (Homo sapiens) (UniProt P25021); test: Binding affinity to H2 receptor (unknown origin) at 10 uM by radioligand binding assay relative to control
Chain of Histamine H2 receptor (Homo sapiens) (P25021 whole entry): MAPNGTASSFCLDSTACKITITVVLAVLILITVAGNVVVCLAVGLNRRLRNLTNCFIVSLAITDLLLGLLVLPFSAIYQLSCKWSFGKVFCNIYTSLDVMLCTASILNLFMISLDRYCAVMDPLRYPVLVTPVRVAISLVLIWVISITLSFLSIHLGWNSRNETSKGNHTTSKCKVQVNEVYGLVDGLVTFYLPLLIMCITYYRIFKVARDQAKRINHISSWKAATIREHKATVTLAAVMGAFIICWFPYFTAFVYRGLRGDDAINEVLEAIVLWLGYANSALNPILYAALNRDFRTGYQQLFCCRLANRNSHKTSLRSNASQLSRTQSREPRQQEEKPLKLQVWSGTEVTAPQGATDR

[12] = Toxicity in male Sprague-Dawley rat assessed as change in hematology at 2.5 to 7.5 mg/kg, po administered once daily for 4 weeks and measured after 4 weeks; assay type: organism-based; settings: in vivo, 1344 h, dose 2.5-7.5 mg/kg, time 8 weeks
[13] = Toxicity in Sprague-Dawley rat assessed as fasciculation 2.5 to 7.5 mg/kg, po administered once daily for 4 weeks; assay type: organism-based; settings: in vivo, 672 h, dose 2.5-7.5 mg/kg
[14] = Toxicity in female Sprague-Dawley rat assessed as irritability at 2.5 mg/kg, po administered once daily for 4 weeks and measured after 4 weeks; assay type: organism-based; settings: in vivo, 1344 h, time 8 weeks
[15] = Toxicity in male Sprague-Dawley rat assessed as change in clinical chemistry at 2.5 to 7.5 mg/kg, po administered once daily for 4 weeks and measured after 4 weeks; assay type: organism-based; settings: in vivo, 1344 h, dose 2.5-7.5 mg/kg, time 8 weeks
[16] = target: Voltage-gated inwardly rectifying potassium channel KCNH2 (Homo sapiens, UniProt Q12809); test: Inhibition of human ERG expressed in CHO cells by whole cell patch clamp technique; assay type: toxicity, cell-based
Chain of Voltage-gated inwardly rectifying potassium channel KCNH2 (Q12809 whole entry): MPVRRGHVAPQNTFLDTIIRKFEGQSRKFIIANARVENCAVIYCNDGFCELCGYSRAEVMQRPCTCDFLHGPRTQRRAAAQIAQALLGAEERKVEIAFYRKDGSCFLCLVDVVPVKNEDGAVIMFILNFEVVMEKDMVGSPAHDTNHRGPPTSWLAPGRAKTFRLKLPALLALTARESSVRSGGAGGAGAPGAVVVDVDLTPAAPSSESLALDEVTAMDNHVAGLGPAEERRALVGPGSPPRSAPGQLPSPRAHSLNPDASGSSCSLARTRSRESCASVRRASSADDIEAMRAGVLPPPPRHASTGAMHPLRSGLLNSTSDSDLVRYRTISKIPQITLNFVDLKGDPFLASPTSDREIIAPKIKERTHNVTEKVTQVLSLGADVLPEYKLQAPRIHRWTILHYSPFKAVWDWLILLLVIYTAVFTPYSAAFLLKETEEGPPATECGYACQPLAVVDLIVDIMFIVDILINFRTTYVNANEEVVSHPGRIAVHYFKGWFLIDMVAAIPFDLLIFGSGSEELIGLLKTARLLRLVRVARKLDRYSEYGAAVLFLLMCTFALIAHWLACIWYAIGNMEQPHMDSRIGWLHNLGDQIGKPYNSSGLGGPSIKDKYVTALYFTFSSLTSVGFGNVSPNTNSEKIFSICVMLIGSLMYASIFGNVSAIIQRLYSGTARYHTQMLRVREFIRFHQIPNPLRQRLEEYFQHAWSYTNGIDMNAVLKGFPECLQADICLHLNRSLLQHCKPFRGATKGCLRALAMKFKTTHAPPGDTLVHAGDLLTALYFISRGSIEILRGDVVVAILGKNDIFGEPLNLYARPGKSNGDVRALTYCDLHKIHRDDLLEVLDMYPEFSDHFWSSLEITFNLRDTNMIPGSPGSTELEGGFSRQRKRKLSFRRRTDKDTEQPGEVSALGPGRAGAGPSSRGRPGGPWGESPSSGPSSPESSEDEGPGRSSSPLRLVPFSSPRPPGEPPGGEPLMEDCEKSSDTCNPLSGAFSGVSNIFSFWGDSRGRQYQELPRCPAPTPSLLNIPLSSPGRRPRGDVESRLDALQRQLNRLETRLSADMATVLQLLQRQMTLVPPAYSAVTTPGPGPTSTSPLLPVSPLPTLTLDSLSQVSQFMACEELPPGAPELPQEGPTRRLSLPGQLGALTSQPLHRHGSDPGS

[17] = Drug concentration in male Sprague-Dawley rat brain at 5 mg/kg, IG measured after 6 hrs by LC-MS/MS analysis; assay type: ADME, organism-based; settings: in vivo, po
[18] = Toxicity in male Beagle dog assessed as minimal decrease activity at 2.5 mg/kg, IG administered once daily for 4 weeks and measured after 4 weeks; assay type: organism-based, Canis lupus familiaris; settings: in vivo, po, 1344 h, time 8 weeks

Q: With c1cc2c(s1)[C@@H]1CNCCN1CC2 as the compound, how does the Activity [1] read?
A: Non-toxic

Q: And the Activity [2]?
A: Non-toxic

Q: And the Activity [3]?
A: 100%

Q: What about the Activity [4] of the same compound?
A: Toxic

Q: And the Activity [5]?
A: 5.02%

Q: What about the Activity [6] of the same compound?
A: -1.11%

Q: What about the Activity [7] of the same compound?
A: Toxic

Q: And the Activity [8]?
A: 23.8%

Q: What about the Activity [9] of the same compound?
A: Non-toxic

Q: And the Activity [10]?
A: Non-toxic

Q: And the Activity [11]?
A: 1.39%

Q: What about the Activity [12] of the same compound?
A: Non-toxic

Q: And the Activity [13]?
A: Non-toxic

Q: And the Activity [14]?
A: Non-toxic

Q: And the Activity [15]?
A: Non-toxic

Q: And the IC50 [16]?
A: > 30 µM

Q: And the Ct [17]?
A: 3832 nmol/kg

Q: What about the Activity [18] of the same compound?
A: Non-toxic
